This passage reports IC50, DC50 and GI50 results from patent publication US20240158418A1 (C4 Therapeutics, Inc., priority 2021, published 2024).

What all share (assay type): cell-based
The target of one experiment is T1, pY1068 EGFR L858R-T790M (Homo sapiens, UniProt P00533, L858R/T790M).
T1 construct: NCI-H1975 (harboring EGFR heterozygous L858R-T790M mutations); host or cells: NCI-H1975
The experiment in a line: Phospho-EGFR (pY1068) inhibition HTRF, NCI-H1975. To be noted: 6 hours, read-out: pEGFR IC50. From the text: (§1) NCI-H1975 (harboring EGFR heterozygous L858R-T790M mutations) and NCI-H3255 (harboring EGFR heterozygous L858R mutation) were purchased from ATCC and NCI, respectively. NCI-H1975+CS (harboring EGFR heterozygous L858R-T790M-C797S mutations) was generated using CRISPR technology to introduce the additional C797S mutation by Horizon Discovery. A431 (harboring EGFR wildtype) was purchased from ATCC. RPMI 1640 no-phenol red medium and fetal bovine serum (FBS) were purchased from Gibco (Grand Island, NY, USA). Cell culture flasks and 384-well microplates were acquired from VWR (Radnor, PA, USA). Phosphorylated (pY1068) EGFR and Total EGFR (using L858R-specific detection antibody and pan-EGFR antibody for EGFR mutant cell lines and EGFR wild-type cell lines, respectively) HTRF assay kits were purchased from Cisbio (Bedford, MA, USA).
(§2) Degradation of EGFR protein containing L858R mutation or wild-type was determined based on quantification of FRET signal using a Total EGFR (L858R-specific or pan-EGFR detecting) HTRF assay kit. Phospho-EGFR (pEGFR) inhibition was determined based on quantification of FRET signal using a pY1068 EGFR HTRF assay kit. In separate assay plates, test compounds were added to the 384-well plate from a top concentration of 10 μM with 11 points, half log titration in duplicates. For each assay, 12.5 uL of cells suspended in assay media (RPMI 1640 no-phenol red medium+10% FBS) at cell densities indicated for each cell line in Table 8 below were dispensed using a multi-channel pipette to 384-well low volume white HTRF microplates containing a duplicate concentration range of test compounds and DMSO controls. The plates were kept at 37° C. with 5% CO2 for 6 hours and then incubated with either phospho EGFR or Total EGFR HTRF detection antibodies according to the cell line and EGFR mutant being assayed. Cells treated in the absence of the test compound were the negative control. Positive control was set by wells containing all reagents but no cells. FRET signal was acquired on EnVision™ Multilabel Reader (PerkinElmer, Santa Clara, CA, USA). Compound concentration that achieves 50% degradation and inhibition was reported as DC50 and IC50, respectively.

The target in another experiment is T2, EGFR L858R-T790M-C797S (Homo sapiens, UniProt P00533, C797S/L858R/T790M).
T2 construct: generated using CRISPR technology to introduce the additional C797S mutation by Horizon Discovery; host or cells: NCI-H1975+CS (CRISPR knock-in of C797S)
The experiment in a line: EGFR degradation, Total EGFR (L858R-specific) HTRF, NCI-H1975+CS. To be noted: H1975 + CS (L858R-T790M-C797S), 6 hours; read-out: tEGFR DC50. In a few lines:
(§3)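 HTRF read-outs: pY1068 phospho-EGFR for IC50; total EGFR (pan-EGFR in A431, L858R-specific in mutant lines) for DC50. Compounds were titrated 11 points, half-log, from 10 μM in duplicate onto cells in 10% FBS RPMI, incubated 6 h at 37°C.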
(TR-FRET usually uses a lanthanide donor and a delayed reading to cut background.)

In a further experiment the target is T3, pY1068 EGFR L858R (Homo sapiens, UniProt P00533, L858R).
T3 construct: NCI-H3255 (harboring EGFR heterozygous L858R mutation); host or cells: NCI-H3255
The experiment in a line: Phospho-EGFR (pY1068) inhibition HTRF, NCI-H3255. The following applies: 6 hours, read-out: pEGFR IC50.
Description: as §1, §2

A further experiment deals with T4, EGFR WT (Homo sapiens, UniProt P00533).
T4 construct: A431 (harboring EGFR wildtype) was purchased from ATCC; host or cells: A431
The experiment is described as follows: EGFR degradation, Total EGFR (pan-EGFR) HTRF, A431. The following applies: A431 (wild-type), 6 hours; read-out: tEGFR DC50.
Description: as §1, §2

The test system of experiment [1] is BaF3 cells expressing EGFR L858R-T790M. The experiment is described as follows: Ba/F3 EGFR cell viability (CellTiter-Glo), L858R-T790M. The following applies: Mus musculus, read-out: CTGlo (GI50). From the text:
(§4) RPMI 1640 media, cell culture flasks, and 384-well microplates were purchased from VWR (Radnor, PA, USA). Fetal bovine serum (FBS) was purchased from Life Technologies (Carlsbad, CA, USA) and CellTiter-Glo® was purchased from Promega (Madison, WI, USA). The Ba/F3 parental cell line was purchased from CrownBio (Santa Clara, CA). BaF3 cell lines ectopically expressing the EGFR mutations L858R, L858R-T790M, L858R-C797S, and L858R-T790M-C797S were purchased from CrownBio and EGFR mutations L858R-L718Q, L858R-T790M-L718Q, L858R-L792H, and L858R-T790M-L792H, were purchased from Signosis (Santa Clara, CA).
(§5) Cell viability was assessed based on the quantification of ATP using the CellTiter-Glo® assay (Promega, Madison, WI, USA). To determine the effect of compounds on cell viability, all Ba/F3 cell lines were plated at a cell density of 2000 cells/well in 384-well plates using RPMI 1640+10% FBS and treated with compounds of interest using a 10-point half-log dilution series in duplicate for 72 hours, with the highest dose set at […]. CellTiter-Glo® reagent was then added and luminescence signals were measured using an EnVision™ Multimode plate reader (Perkin Elmer, Santa Clara, CA). For data normalization, cells untreated with the test compounds at Time=72 hours were set to 100% (equivalent to maximal cell growth after 72 hours); cells untreated with the test compounds at Time=0 hours were set to 0% (equivalent to cytostasis); and media-only wells were set to −100% (equivalent to complete cytotoxicity). % Viability was determined by normalizing the signal with positive and DMSO treated negative controls on the same microtiter plate. The half-maximal inhibition of cell growth (GI50) is computed from where the fitted curve crosses 50% while the half-maximal lethal dose (LD50) is computed from where the fitted curve crosses −50%.
For orientation: ATP-based viability assays read luminescence as a measure of living cells.

Another experiment concerns the target T5, EGFR L858R-T790M (Homo sapiens, UniProt P00533, L858R/T790M).
T5 construct: NCI-H1975 (harboring EGFR heterozygous L858R-T790M mutations); host or cells: NCI-H1975
The experiment is described as follows: EGFR degradation, Total EGFR (L858R-specific) HTRF, NCI-H1975. The following applies: Table 9A; NCI-H1975 cells, 6 hours, Total EGFR HTRF; read-out: H1975 EGFR DC50. The essentials:
as §3

The test system of experiment [2] is BaF3 cells expressing EGFR L858R-C797S. The experiment is described as follows: Ba/F3 EGFR cell viability (CellTiter-Glo), L858R-C797S. The following applies: Mus musculus, read-out: CTGlo (GI50).
Description: as §4, §5

Experiment [3] has as its system BaF3 cells expressing EGFR L858R. The experiment is described as follows: Ba/F3 EGFR cell viability (CellTiter-Glo), L858R. To be noted: Mus musculus, read-out: CTGlo (GI50).
Description: as §4, §5

For experiment [4], the system named is BaF3 cells expressing wild-type EGFR. The experiment in a line: Ba/F3 EGFR cell viability (CellTiter-Glo), wild-type EGFR. The following applies: Mus musculus, Ba/F3 WT EGFR, read-out: CTGlo (GI50).
The test system of experiment [5] is BaF3 cells expressing EGFR L858R-T790M-C797S. The experiment is described as follows: Ba/F3 EGFR cell viability (CellTiter-Glo), L858R-T790M-C797S. The following applies: Mus musculus, read-out: CTGlo (GI50).
Description: as §4, §5

The target in the next experiment is EGFR L858R (Homo sapiens, UniProt P00533, L858R). The experiment is described as follows: EGFR degradation, Total EGFR (L858R-specific) HTRF, NCI-H3255. Details: NCI-H3255 (harboring EGFR heterozygous L858R mutation); host or cells: NCI-H3255. To be noted: H3255 (L858R), 6 hours; read-out: tEGFR DC50. The essentials: as §3
Experiment [6] deals with T6, pY1068 EGFR L858R-T790M-C797S (Homo sapiens, UniProt P00533, C797S/L858R/T790M).
T6 construct: generated using CRISPR technology to introduce the additional C797S mutation by Horizon Discovery; host or cells: NCI-H1975+CS (CRISPR knock-in of C797S)
The experiment is described as follows: Phospho-EGFR (pY1068) inhibition HTRF, NCI-H1975+CS. The following applies: 6 hours, read-out: pEGFR IC50.
Description: as §1, §2

T2 sequence (P00533 25-1210 T790M/C797S/L858R): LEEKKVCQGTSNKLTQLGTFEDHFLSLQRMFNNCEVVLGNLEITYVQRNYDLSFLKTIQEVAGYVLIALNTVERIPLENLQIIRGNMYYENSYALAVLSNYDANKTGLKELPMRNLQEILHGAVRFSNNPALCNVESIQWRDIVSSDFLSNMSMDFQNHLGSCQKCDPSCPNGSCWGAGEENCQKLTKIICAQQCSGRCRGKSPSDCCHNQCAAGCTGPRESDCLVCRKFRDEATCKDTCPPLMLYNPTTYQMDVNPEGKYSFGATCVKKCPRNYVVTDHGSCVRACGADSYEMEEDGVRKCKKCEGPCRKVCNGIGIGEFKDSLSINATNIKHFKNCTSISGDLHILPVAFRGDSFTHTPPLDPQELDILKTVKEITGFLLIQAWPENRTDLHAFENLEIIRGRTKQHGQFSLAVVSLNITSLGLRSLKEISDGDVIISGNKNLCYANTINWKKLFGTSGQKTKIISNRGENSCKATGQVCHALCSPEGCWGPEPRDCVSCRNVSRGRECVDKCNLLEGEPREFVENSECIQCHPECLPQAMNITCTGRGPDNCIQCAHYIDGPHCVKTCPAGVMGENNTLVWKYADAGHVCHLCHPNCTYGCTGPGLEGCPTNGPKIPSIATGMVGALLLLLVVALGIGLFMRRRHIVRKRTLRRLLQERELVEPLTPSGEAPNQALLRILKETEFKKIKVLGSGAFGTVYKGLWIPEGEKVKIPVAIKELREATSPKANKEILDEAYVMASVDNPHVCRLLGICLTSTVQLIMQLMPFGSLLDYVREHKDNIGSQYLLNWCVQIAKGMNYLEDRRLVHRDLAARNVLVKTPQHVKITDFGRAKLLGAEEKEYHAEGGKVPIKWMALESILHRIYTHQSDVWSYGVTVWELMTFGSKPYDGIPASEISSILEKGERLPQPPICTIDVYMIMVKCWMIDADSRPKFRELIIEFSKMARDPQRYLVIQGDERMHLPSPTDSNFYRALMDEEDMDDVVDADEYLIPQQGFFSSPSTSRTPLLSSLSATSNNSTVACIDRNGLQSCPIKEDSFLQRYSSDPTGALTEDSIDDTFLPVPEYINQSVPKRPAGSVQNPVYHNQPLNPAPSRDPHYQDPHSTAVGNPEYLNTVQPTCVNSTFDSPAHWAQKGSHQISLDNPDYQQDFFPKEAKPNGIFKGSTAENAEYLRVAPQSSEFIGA
T6 sequence (P00533 25-1210 T790M/C797S/L858R): as above
T5 sequence (P00533 25-1210 T790M/L858R): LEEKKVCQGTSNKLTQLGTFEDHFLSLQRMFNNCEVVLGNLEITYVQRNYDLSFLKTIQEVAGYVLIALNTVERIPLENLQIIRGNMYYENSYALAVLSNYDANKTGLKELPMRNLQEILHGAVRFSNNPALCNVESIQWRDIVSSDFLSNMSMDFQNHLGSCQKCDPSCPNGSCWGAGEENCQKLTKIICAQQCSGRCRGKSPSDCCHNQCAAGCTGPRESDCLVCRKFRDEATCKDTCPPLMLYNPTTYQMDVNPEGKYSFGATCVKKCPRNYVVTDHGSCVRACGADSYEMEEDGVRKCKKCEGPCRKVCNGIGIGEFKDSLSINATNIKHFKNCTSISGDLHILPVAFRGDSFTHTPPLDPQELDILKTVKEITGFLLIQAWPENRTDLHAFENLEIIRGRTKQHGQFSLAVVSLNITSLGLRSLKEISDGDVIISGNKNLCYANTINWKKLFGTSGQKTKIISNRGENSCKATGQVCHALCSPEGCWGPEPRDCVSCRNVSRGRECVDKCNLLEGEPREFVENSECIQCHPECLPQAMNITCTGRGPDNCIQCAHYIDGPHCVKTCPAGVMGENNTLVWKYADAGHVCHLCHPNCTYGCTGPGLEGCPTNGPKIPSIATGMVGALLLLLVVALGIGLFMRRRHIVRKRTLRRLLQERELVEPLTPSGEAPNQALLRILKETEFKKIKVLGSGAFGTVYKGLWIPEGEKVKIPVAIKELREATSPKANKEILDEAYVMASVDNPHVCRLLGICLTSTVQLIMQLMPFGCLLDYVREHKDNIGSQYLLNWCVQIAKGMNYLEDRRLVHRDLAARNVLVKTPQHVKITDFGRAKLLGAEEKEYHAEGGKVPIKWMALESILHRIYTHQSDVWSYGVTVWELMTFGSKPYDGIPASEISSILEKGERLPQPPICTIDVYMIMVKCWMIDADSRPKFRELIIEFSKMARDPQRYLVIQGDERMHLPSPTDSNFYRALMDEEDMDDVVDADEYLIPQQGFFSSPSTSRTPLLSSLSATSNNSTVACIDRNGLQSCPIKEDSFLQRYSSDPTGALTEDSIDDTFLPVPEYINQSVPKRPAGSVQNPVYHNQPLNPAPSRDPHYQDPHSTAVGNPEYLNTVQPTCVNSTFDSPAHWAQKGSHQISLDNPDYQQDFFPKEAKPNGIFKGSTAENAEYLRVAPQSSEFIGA
T1 sequence (P00533 25-1210 T790M/L858R): as above

In the case of `Cn1nc(N2CCC(=O)NC2=O)c2ccc(C3CCN(CC(=O)N4CC5(C4)CN(c4ccc(-c6cc(F)c7c(c6)C(=O)N(C(C(=O)Nc6nccs6)c6ncn8c6CCC8)C7)cc4)C5)CC3(F)F)cc21` (stereo not drawn) [Compound 3, 2-(6,7-dihydro-5H-pyrrolo[1,2-c]imidazol-1-yl)-2-[6-[4-[2-[2-[4-[3-(2,4-dioxohexahydropyrimidin-1-yl)-1-methyl-indazol-6-yl]-3,3-difluoro-1-piperidyl]acetyl]-2,6-diazaspiro[3.3]heptan-6-yl]phenyl]-4-fluoro-1-oxo-isoindolin-2-yl]-N-thiazol-2-yl-acetamide], the IC50 (in general, the concentration that inhibits the measured activity by half) is 11 nM on pY1068 EGFR L858R-T790M, 8 nM at pY1068 EGFR L858R and 19 nM in experiment [6]. For the same compound, the DC50 (commonly the concentration at which degradation of the target reaches its halfway point) is 33 nM on EGFR L858R-T790M-C797S, over 10000 nM on EGFR WT, under 50 nM on EGFR L858R-T790M and 8 nM at EGFR L858R. The GI50 – broadly, the concentration that inhibits growth by half – in [1] amounted to 9 nM; in [2], 2 nM; in experiment [3], 3 nM; in [4], 248 nM; in experiment [5], 3 nM.
